Holding throughout (experiment): B1 Post-emergence efficacy, glasshouse pot test
Common to all, as to format: in vivo
Details in all cases: post-emergence application, 1000 g/ha, evaluated after 13 days

One test deals with Solanum nigrum (SOLNI). As for the experimental part:
(§1) B1 Post-Emergence Efficacy Seeds of a variety of test species are sown in standard soil in pots:—Solanum nigrum (SOLNI), Amaranthus retoflexus (AMARE), Setaria faberi (SETFA), Alopecurus myosuroides (ALOMY), Echinochloa crus-galli (ECHCG), Ipomoea hederacea (IPOHE), Lolium perenne (LOLPE). After 8 days cultivation (post-emergence) under controlled conditions in a glasshouse (at 24/16° C., day/night; 14 hours light; 65% humidity), the plants are sprayed with an aqueous spray solution derived from the formulation of the technical active ingredient in acetone/water (50:50) solution containing 0.5% Tween 20 (polyoxyethelyene sorbitan monolaurate, CAS RN 9005-64-5). Compounds are applied at 1000 g/ha. The test plants are then grown in a glasshouse under controlled conditions in a glasshouse (at 24/16° C., day/night; 14 hours light; 65% humidity) and watered twice daily. After 13 days, the test is evaluated for the percentage damage caused to the plant. The biological activities are assessed on a five point scale (5=80-100%; 4=60-79%; 3=40-59%; 2=20-39%; 1=0-19%). A blank value in the table is indicative that the compound was not tested on that species.

Test [1] has as its system Echinochloa crus-galli (ECHCG). As for the experimental part: as §1
Test [2] deals with Amaranthus retoflexus (AMARE). As for the experimental part: as §1
Another test concerns Lolium perenne (LOLPE). The method, then:
as §1

For another test, the system named is Setaria faberi (SETFA). As for the experimental part:
as §1

Test [3] has as its system Ipomoea hederacea (IPOHE). As for the experimental part: as §1

In the case of `Cc1nn(C)c(=O)c(-c2c(Cl)cc(Cl)cc2OCc2ccccc2)c1O` [Compound 1.006], in the test with Solanum nigrum (SOLNI), the “SOLNI: percentage damage caused to the plant (five point scale)” value (“SOLNI: percentage damage caused” below) is listed as 5 (5=80-100%). Moreover, the “ECHCG: percentage damage caused to the plant (five point scale)” value (“ECHCG: percentage damage caused” for short) in test [1] is on record as 3 (3=40-59%). For the same compound, the “AMARE: percentage damage caused to the plant (five point scale)” value (from here on “AMARE: percentage damage caused”) in test [2] is given as 5 (5=80-100%). In addition, the “LOLPE: percentage damage caused to the plant (five point scale)” value (from here on “LOLPE: percentage damage caused”) with Lolium perenne (LOLPE) is listed as 2 (2=20-39%). Moreover, the “SETFA: percentage damage caused to the plant (five point scale)” value (from here on “SETFA: percentage damage caused”) in the test with Setaria faberi (SETFA) is given as 3 (3=40-59%). Further, the “IPOHE: percentage damage caused to the plant (five point scale)” value (from here on “IPOHE: percentage damage caused”) in test [3] is on record as 5 (5=80-100%).
For the compound `Cc1nn(C)c(=O)c(-c2c(Cl)ccc(Cl)c2OCc2ccc(Cl)c(Cl)c2)c1O` [Compound 1.005], in the test on Solanum nigrum (SOLNI), the “SOLNI: percentage damage caused” value is on record as 5 (5=80-100%). The “ECHCG: percentage damage caused” value in test [1] is on record as 5 (5=80-100%). Besides, the “AMARE: percentage damage caused” value in test [2] was 5 (5=80-100%). In addition, in the test on Lolium perenne (LOLPE), the “LOLPE: percentage damage caused” value was 5 (5=80-100%). Moreover, in the test on Setaria faberi (SETFA), the “SETFA: percentage damage caused” value is reported as 5 (5=80-100%). Further, in test [3], the “IPOHE: percentage damage caused” value is listed as 5 (5=80-100%).
Take `COc1ccc(COc2c(Cl)ccc(Cl)c2-c2c(O)c(C)nn(C)c2=O)cc1` [Compound 1.067]: in the test with Solanum nigrum (SOLNI), the “SOLNI: percentage damage caused” value is 5 (5=80-100%). For the same compound, in test [1], the “ECHCG: percentage damage caused” value is given as 5 (5=80-100%). The “AMARE: percentage damage caused” value in test [2] is listed as 2 (2=20-39%). The “LOLPE: percentage damage caused” value in the test on Lolium perenne (LOLPE) is 5 (5=80-100%). Also, in the test on Setaria faberi (SETFA), the “SETFA: percentage damage caused” value is listed as 5 (5=80-100%). Besides, the “IPOHE: percentage damage caused” value in test [3] was 5 (5=80-100%).
Turning to `Cc1nn(C)c(=O)c(-c2c(C(F)(F)F)ccc(Cl)c2OCc2ccccc2)c1O` [Compound 1.073], in the test with Solanum nigrum (SOLNI), the “SOLNI: percentage damage caused” value is given as 5 (5=80-100%). In test [1], the “ECHCG: percentage damage caused” value was 5 (5=80-100%). Further, in test [2], the “AMARE: percentage damage caused” value is 3 (3=40-59%). For the same compound, the “LOLPE: percentage damage caused” value with Lolium perenne (LOLPE) was 3 (3=40-59%). In the test on Setaria faberi (SETFA), the “SETFA: percentage damage caused” value is on record as 5 (5=80-100%). Besides, the “IPOHE: percentage damage caused” value in test [3] is reported as 5 (5=80-100%).
Regarding `CCc1nn(C)c(=O)c(-c2c(C(F)(F)F)ccc(Cl)c2OCc2ccccc2)c1O` [Compound 1.072], in the test on Solanum nigrum (SOLNI), the “SOLNI: percentage damage caused” value is on record as 5 (5=80-100%). In addition, the “ECHCG: percentage damage caused” value in test [1] was 4 (4=60-79%). In test [2], the “AMARE: percentage damage caused” value is recorded as 2 (2=20-39%). Also, the “LOLPE: percentage damage caused” value in the test on Lolium perenne (LOLPE) is recorded as 2 (2=20-39%). The “SETFA: percentage damage caused” value in the test on Setaria faberi (SETFA) is reported as 5 (5=80-100%). In addition, the “IPOHE: percentage damage caused” value in test [3] is reported as 5 (5=80-100%).
In the case of `CCn1nc(C)c(O)c(-c2c(F)ccc(Cl)c2OCc2ccccc2)c1=O` [Compound 1.037], the “SOLNI: percentage damage caused” value in the test on Solanum nigrum (SOLNI) was 5 (5=80-100%). Further, in test [1], the “ECHCG: percentage damage caused” value is recorded as 5 (5=80-100%). Moreover, the “AMARE: percentage damage caused” value in test [2] is given as 5 (5=80-100%). Moreover, in the test on Lolium perenne (LOLPE), the “LOLPE: percentage damage caused” value is recorded as 5 (5=80-100%). The “SETFA: percentage damage caused” value in the test with Setaria faberi (SETFA) is reported as 4 (4=60-79%). Also, in test [3], the “IPOHE: percentage damage caused” value is given as 5 (5=80-100%).
For the compound `C#CCn1nc(C)c(O)c(-c2c(F)ccc(Cl)c2OCc2ccccc2)c1=O` [Compound 1.077], in the test on Solanum nigrum (SOLNI), the “SOLNI: percentage damage caused” value was 5 (5=80-100%). Further, the “ECHCG: percentage damage caused” value in test [1] is reported as 5 (5=80-100%). Moreover, the “AMARE: percentage damage caused” value in test [2] is 5 (5=80-100%). Besides, the “LOLPE: percentage damage caused” value with Lolium perenne (LOLPE) was 5 (5=80-100%). In addition, in the test on Setaria faberi (SETFA), the “SETFA: percentage damage caused” value is 5 (5=80-100%). In test [3], the “IPOHE: percentage damage caused” value is 5 (5=80-100%).
`Cc1nn(C)c(=O)c(-c2c(C(F)(F)F)ccc(F)c2OCc2ccccc2)c1O` [Compound 1.069]: the “SOLNI: percentage damage caused” value in the test with Solanum nigrum (SOLNI) was 5 (5=80-100%). The “ECHCG: percentage damage caused” value in test [1] is 5 (5=80-100%). In addition, the “AMARE: percentage damage caused” value in test [2] is recorded as 3 (3=40-59%). In addition, in the test on Lolium perenne (LOLPE), the “LOLPE: percentage damage caused” value is reported as 3 (3=40-59%). For the same compound, the “SETFA: percentage damage caused” value in the test on Setaria faberi (SETFA) was 5 (5=80-100%). Further, the “IPOHE: percentage damage caused” value in test [3] is given as 5 (5=80-100%).
In the case of `CSc1nn(C)c(=O)c(-c2c(Cl)ccc(Cl)c2OCc2ccccc2)c1O` [Compound 1.086], in the test with Solanum nigrum (SOLNI), the “SOLNI: percentage damage caused” value is 5 (5=80-100%). Also, in test [1], the “ECHCG: percentage damage caused” value is listed as 2 (2=20-39%). For the same compound, the “AMARE: percentage damage caused” value in test [2] is 3 (3=40-59%). Further, the “LOLPE: percentage damage caused” value in the test on Lolium perenne (LOLPE) was 4 (4=60-79%). In addition, the “SETFA: percentage damage caused” value in the test on Setaria faberi (SETFA) is reported as 4 (4=60-79%). Besides, the “IPOHE: percentage damage caused” value in test [3] was 5 (5=80-100%).

These data come from patent publication US9944608B2, “Herbicidal pyridazinone derivatives” (Syngenta Participations AG, priority 2014, dated 2018).
